# Data taken from ChEMBL document CHEMBL1134592, “Design and synthesis of matrix metalloproteinase inhibitors guided by molecular modeling. Picking the S(1) pocket using conformationally constrained inhibitors” (J Med Chem, 2001).
# Tests used:
# [1] = molecular target: Matrix metalloproteinase-9 (Homo sapiens, UniProt P14780); test: Inhibition of human matrix metalloprotease-9
# [2] = molecular target: 72 kDa type IV collagenase (Homo sapiens, UniProt P08253); test: Inhibition of matrix metalloprotease-2
# Stromelysin-1 = Stromelysin-1 (Homo sapiens, UniProt P08254); test: Inhibition of matrix metalloprotease-3
# Collagenase 3 = Collagenase 3 (Homo sapiens, UniProt P45452); test: Inhibition of matrix metalloprotease-13
# Interstitial collagenase = molecular target: T1, Interstitial collagenase (Homo sapiens, UniProt P03956); test: Inhibition of human matrix metalloprotease-1
# T1 sequence (P03956 whole entry): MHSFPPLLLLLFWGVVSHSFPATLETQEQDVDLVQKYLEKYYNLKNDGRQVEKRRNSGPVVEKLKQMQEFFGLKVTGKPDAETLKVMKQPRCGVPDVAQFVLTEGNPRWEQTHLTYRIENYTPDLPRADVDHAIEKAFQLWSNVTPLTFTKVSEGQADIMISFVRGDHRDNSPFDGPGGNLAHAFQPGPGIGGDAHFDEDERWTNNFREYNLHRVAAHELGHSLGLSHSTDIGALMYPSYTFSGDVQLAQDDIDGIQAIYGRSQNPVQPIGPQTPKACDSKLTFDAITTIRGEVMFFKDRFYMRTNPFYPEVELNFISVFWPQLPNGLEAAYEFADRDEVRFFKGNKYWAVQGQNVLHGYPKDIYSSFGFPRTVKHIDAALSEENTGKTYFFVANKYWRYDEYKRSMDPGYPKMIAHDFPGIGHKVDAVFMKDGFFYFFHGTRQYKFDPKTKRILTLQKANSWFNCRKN
# Chain of 72 kDa type IV collagenase (P08253 whole entry): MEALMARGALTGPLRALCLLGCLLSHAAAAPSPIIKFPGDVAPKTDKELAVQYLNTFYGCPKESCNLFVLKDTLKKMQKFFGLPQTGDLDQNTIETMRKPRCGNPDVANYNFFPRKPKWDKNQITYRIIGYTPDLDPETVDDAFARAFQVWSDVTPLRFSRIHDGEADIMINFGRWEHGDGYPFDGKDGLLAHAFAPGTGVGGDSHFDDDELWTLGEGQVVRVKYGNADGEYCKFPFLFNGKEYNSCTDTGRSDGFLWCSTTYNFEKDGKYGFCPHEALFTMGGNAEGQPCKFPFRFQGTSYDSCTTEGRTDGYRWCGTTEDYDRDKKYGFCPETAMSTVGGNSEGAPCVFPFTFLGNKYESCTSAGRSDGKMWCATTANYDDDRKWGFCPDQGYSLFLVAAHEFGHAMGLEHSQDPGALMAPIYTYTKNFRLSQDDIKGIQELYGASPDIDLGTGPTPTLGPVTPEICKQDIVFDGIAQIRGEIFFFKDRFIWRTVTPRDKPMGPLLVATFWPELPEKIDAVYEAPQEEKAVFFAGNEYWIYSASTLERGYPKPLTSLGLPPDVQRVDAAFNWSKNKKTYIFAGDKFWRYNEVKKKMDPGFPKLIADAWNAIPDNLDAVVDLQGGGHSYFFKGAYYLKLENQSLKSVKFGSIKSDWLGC
# Chain of Stromelysin-1 (P08254 whole entry): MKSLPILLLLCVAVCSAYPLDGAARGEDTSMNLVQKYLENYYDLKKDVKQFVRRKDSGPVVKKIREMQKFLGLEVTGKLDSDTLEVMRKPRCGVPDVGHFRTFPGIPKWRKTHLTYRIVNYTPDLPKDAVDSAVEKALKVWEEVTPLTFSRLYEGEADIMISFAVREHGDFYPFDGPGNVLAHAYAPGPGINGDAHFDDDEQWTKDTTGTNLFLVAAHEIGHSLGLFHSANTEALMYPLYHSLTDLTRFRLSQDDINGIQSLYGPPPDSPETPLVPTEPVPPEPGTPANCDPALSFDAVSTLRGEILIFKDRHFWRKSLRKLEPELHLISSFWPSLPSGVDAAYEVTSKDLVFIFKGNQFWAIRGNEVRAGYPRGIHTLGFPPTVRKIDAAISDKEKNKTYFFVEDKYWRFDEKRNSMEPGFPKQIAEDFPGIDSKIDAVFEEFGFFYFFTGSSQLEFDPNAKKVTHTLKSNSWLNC
# Chain of Matrix metalloproteinase-9 (P14780 whole entry): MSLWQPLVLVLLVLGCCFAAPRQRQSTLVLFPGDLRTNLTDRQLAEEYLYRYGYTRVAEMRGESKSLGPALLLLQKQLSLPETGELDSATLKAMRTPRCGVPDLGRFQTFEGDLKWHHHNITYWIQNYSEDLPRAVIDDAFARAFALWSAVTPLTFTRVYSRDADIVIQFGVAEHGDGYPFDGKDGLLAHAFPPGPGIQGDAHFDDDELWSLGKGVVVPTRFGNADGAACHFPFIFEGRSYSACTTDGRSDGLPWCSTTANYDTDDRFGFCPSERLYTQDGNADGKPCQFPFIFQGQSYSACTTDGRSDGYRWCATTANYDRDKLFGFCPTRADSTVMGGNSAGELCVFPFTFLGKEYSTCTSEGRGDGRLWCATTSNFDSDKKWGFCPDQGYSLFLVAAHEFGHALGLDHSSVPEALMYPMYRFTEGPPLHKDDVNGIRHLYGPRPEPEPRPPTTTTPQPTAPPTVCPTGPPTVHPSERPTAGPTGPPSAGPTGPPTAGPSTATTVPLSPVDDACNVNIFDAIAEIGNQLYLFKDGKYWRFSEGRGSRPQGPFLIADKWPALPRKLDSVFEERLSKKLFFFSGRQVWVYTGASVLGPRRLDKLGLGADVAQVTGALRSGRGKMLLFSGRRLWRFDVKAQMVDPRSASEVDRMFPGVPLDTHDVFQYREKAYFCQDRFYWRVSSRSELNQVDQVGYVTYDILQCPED
SMILES,IC50 [1] [nM],IC50 [2] [nM],IC50 (Stromelysin-1) [nM],IC50 (Collagenase 3) [nM],IC50 (Interstitial collagenase) [nM]
COc1ccc(S(=O)(=O)N2CC(C)(C)C(CSCCc3ccccc3)[C@@H]2C(=O)NO)cc1 (some centres not stated),2.8,15.4,6.5,17,654
C=CC1[C@H](C(=O)NO)N(S(=O)(=O)c2ccc(OC)cc2)CC1(C)C (some centres not stated),138,441,293,519,–
COc1ccc(S(=O)(=O)N2CC(C)(C)C(COCc3ccccc3)[C@@H]2C(=O)NO)cc1 (some centres not stated),9.2,32,10.1,44.2,1620
COc1ccc(S(=O)(=O)N2CC(C)(C)C(CO)[C@@H]2C(=O)NO)cc1 (some centres not stated),50,143,136,218,–
COc1ccc(CSCC2[C@H](C(=O)NO)N(S(=O)(=O)c3ccc(OC)cc3)CC2(C)C)cc1 (some centres not stated),4.4,4.6,16.7,22.3,458

# More lines, now with the values ahead:
IC50 [1] [nM],IC50 [2] [nM],IC50 (Stromelysin-1) [nM],IC50 (Collagenase 3) [nM],IC50 (Interstitial collagenase) [nM],SMILES
0.9,1.64,6.7,5.5,–,COc1ccc(S(=O)(=O)N2CC(C)(C)C(CSCc3ccccc3)[C@@H]2C(=O)NO)cc1 (some centres not stated)
3.6,16.2,18.7,18.1,301,COc1ccc(S(=O)(=O)N2CC(C)(C)C([C@@H](O)CSc3ccccc3)[C@@H]2C(=O)NO)cc1 (some centres not stated)
2.5,0.7,0.7,12,104,COc1ccc(S(=O)(=O)N(CC(C)C)[C@H](CCSCc2ccccc2)C(=O)NO)cc1
0.9,2.5,3,3.7,117,COc1ccc(S(=O)(=O)N2CC(C)(C)C([C@H](O)CSc3ccccc3)[C@@H]2C(=O)NO)cc1 (some centres not stated)
